Test results from PubChem BioAssay (NCI).
Values joined by “and” are separate entries in the source; they are usually repeats but may differ in a detail not shown here. Identical values can stand only once.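 Compound exposure: 48 hours, 5 concentrations, 96-well plates. At the GI50, growth is halved. TGI is the concentration that stops growth completely.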

Key:
Assay in all cases: NCI tumour cell line growth inhibition, 48 h
PC-3 prostate = system: PC-3 prostate
NCI-H226 lung = system: NCI-H226 lung
SK-OV-3 ovarian = system: SK-OV-3 ovarian
NCI-H23 lung = system: NCI-H23 lung
KM12 colon = system: KM12 colon
SK-MEL-5 melanoma = system: SK-MEL-5 melanoma
SR leukemia = system: SR leukemia
DU-145 prostate = system: DU-145 prostate
HOP-62 NSCLC = system: HOP-62 NSCLC
SF-539 CNS = system: SF-539 CNS

Row | SMILES | GI50 (PC-3 prostate) | TGI (PC-3 prostate) | GI50 (NCI-H226 lung) | TGI (NCI-H226 lung) | GI50 (SK-OV-3 ovarian) [µM] | TGI (SK-OV-3 ovarian) [µM] | GI50 (NCI-H23 lung) | TGI (NCI-H23 lung) | GI50 (KM12 colon) | TGI (KM12 colon) [µM] | GI50 (SK-MEL-5 melanoma) [µM] | TGI (SK-MEL-5 melanoma) | GI50 (SR leukemia) | TGI (SR leukemia) | GI50 (DU-145 prostate) | TGI (DU-145 prostate) | GI50 (HOP-62 NSCLC) [µM] | TGI (HOP-62 NSCLC) [µM] | GI50 (SF-539 CNS) | TGI (SF-539 CNS)
1 | COc1c(C2CC(=O)Nc3c2cnn3Cc2ccco2)cc2c(c1OC)OCO2 (centres undefined) | 0.559 µM | > 100 µM | 3.85 µM | > 100 µM | 0.858 | > 24.9 | 0.674 µM | > 100 µM | 0.439 µM | > 100 | 0.395 | 8.38 µM | 0.437 µM | > 100 µM | 0.522 µM | 24.6 µM | 1.79 | > 100 | 0.434 µM | 4.36 µM
2 | C#Cc1cnc(=O)n(C2CC(O)C(CO)O2)c1 (centres undefined) | 3.36 µM | 11.3 µM | > 100 µM | > 100 µM | > 100 | > 100 | > 100 µM | > 100 µM | > 100 µM | > 100 | > 100 | > 100 µM | 91.5 µM | > 100 µM | > 100 µM | > 100 µM | > 100 | > 100 | > 100 µM | > 100 µM
3 | COc1ccc(C(=S)N2CCN(c3cccc(Cl)c3)CC2)cc1 | 38.6 µM | > 100 µM | > 100 µM | > 100 µM | > 100 | > 100 | > 100 µM | > 100 µM | > 100 µM | > 100 | 84.2 | > 100 µM | > 100 µM | > 100 µM | > 100 µM | > 100 µM | > 100 | > 100 | > 100 µM | > 100 µM
4 | O=C(c1cccs1)c1c(C(F)(F)F)n([O-])c2ccccc2[n+]1=O | 0.448 µM | 2.24 µM | 1.05 µM | 3.12 µM | 2.11 | 7.56 | 0.788 µM | 1.73 µM | 1.12 µM | 3.07 | 0.686 | 1.33 µM | 2.56 µM | 6.03 µM | 0.695 µM | 1.34 µM | 0.376 | 1.24 | 1.11 µM | 3.42 µM
5 | Cc1nn(-c2ccc(F)cc2)c2ncnc(Nc3ccc(NC(=O)Nc4ccc(Cl)c(C(F)(F)F)c4)cc3)c12 | 1.03 µM | 3.98 µM | 2.31 µM | 5.99 µM | 3.8 | 14.5 | 1.91 µM | 4.6 µM | 2.66 µM | 10.9 | 3.39 | 12.1 µM | 3.07 µM | 40.5 µM | 3.17 µM | 11.7 µM | 2.25 | 6.83 | 1.46 µM | 3.08 µM
6 | COc1ccc(-c2nn(-c3cccc(Cl)c3)cc2C2CC(c3ccccc3)=NN2C(C)=O)cc1 (centres undefined) | 6.8 µM | > 100 µM | 3.86 µM | 30.9 µM | 6.85 | 43.2 | 10.1 µM | > 100 µM | > 100 µM | > 100 | 30.3 | > 100 µM | 8.98 µM | > 100 µM | 5.25 µM | > 100 µM | 2.62 | 6.4 | 5.4 µM | 58.7 µM
7 | Fc1cccc(COc2ccc(Nc3ncncc3C#Cc3ccccc3)cc2Cl)c1 | > 25 µM | > 25 µM | > 25 µM | > 25 µM | > 25 | > 25 | > 25 µM | > 25 µM | > 25 µM | > 25 | > 25 | > 25 µM | > 25 µM | > 25 µM | > 25 µM | > 25 µM | > 25 | > 25 | > 25 µM | > 25 µM
8 | CSc1nc(SC)c2c(CN=[N+]=[N-])c(Br)n(Cc3ccccc3)c2n1 |  | > 100 µM |  | > 100 µM |  | > 100 |  | > 100 µM |  | > 100 |  | > 100 µM |  | > 100 µM |  | > 100 µM |  | > 100 |  | > 100 µM
9 | CC(=O)Nc1cccc(-n2c(=O)n(C3CC3)c(=O)c3c(Nc4ccc(I)cc4F)n(C)c(=O)c(C)c32)c1 | 6.33 µM and > 10 µM | 46.3 µM and > 10 µM | 4.37 µM and > 4.88 µM | 47.8 µM and > 10 µM | 8.58 | > 85.4 | < 0.01 µM and 0.0212 µM | 19.3 µM and > 10 µM | 0.0102 µM and 0.0225 µM | > 53.7 |  | 15.9 µM and > 10 µM | 3.65 µM and > 10 µM | 45.6 µM and > 10 µM | 3.36 µM and > 4.01 µM | 93.9 µM and > 10 µM | 0.0121 | > 50.7 | 1.15 µM and > 3.69 µM | 22.1 µM and > 10 µM
